Target: ABL1 (64-515) (Homo sapiens (Human), UniProt P00519)
Experiment: Radio ABL1 (64-515) assay (radiometric filter-binding)
Assay type: biochemical

Sequence of ABL1 (64-515) (P00519 64-515): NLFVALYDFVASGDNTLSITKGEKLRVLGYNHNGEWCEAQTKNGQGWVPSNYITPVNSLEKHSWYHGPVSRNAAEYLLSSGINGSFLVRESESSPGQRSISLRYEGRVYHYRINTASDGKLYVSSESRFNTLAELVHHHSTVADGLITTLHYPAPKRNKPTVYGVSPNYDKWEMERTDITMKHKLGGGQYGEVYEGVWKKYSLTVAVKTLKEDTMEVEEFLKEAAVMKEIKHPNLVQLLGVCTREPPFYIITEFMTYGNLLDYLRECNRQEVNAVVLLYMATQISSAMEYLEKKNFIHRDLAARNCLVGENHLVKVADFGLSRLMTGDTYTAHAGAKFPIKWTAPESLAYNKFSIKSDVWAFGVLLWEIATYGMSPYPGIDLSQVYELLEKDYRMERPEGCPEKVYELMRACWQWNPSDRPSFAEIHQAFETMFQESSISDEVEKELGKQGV

Structure (SMILES)	IC50 [nM]
O=C(Nc1ccc(OC(F)(F)F)cc1)c1cnc(N2CC[C@H](CO)C2)c(-c2cccnc2)c1 [Example 81, (S)-2-(3-(Hydroxymethyl)pyrrolidin-1-yl)-N-(4-(trifluoromethoxy)phenyl)-[3,3′-bipyridine]-5-carboxamide]	< 3
CN[C@H]1CCN(c2ncc(C(=O)Nc3ccc(OC(F)(F)F)cc3)cc2-c2ccc(C)nc2)C1 [Example 104, (S)-6′-Methyl-2-(3-(methylamino)pyrrolidin-1-yl)-N-(4-(trifluoromethoxy)phenyl)-[3,3′-bipyridine]-5-carboxamide]	3
O=C(Nc1ccc(OC(F)(F)F)cc1)c1cnc(N2CC[C@@H](O)C2)c(-c2cncc(C(F)(F)F)c2)c1 [Example 234, (R)-2-(3-Hydroxypyrrolidin-1-yl)-N-(4-(trifluoromethoxy)phenyl)-5′-(trifluoromethyl)-[3,3′-bipyridine]-5-carboxamide]	19
O=C(Nc1ccc(OC(F)(F)F)cc1)c1cnc(N2CCCC2)c(-c2cncnc2)c1 [Example 67, 5-(Pyrimidin-5-yl)-6-(pyrrolidin-1-yl)-N-(4-(trifluoromethoxy)phenyl)nicotinamide]	< 3
O=C(Nc1ccc(OC(F)(F)F)cc1)c1cnc(NCCO)c(-c2cccnc2)c1 [Example 159, 2-((2-Hydroxyethyl)amino)-N-(4-(trifluoromethoxy)phenyl)-[3,3′-bipyridine]-5-carboxamide]	< 3
O=C(Nc1ccc(OC(F)(F)F)cc1)c1cnc(N2CCC(O)C2)c(-c2cccnc2)c1 (stereo not shown) [Example 29, 2-(3-Hydroxypyrrolidin-1-yl)-N-(4-(trifluoromethoxy)phenyl)-[3,3′-bipyridine]-5-carboxamide]	< 3
COc1ccc(-c2cc(C(=O)Nc3ccc(OC(F)(F)F)cc3)cnc2N2CC[C@@H](CN)C2)cn1 [Example 111, (S)-2-(3-(Aminomethyl)pyrrolidin-1-yl)-6′-methoxy-N-(4-(trifluoromethoxy)phenyl)-[3,3′-bipyridine]-5-carboxamide]	< 3
CN(c1ncc(C(=O)Nc2ccc(OC(F)(F)F)cc2)cc1-c1cncnc1)C1CCOCC1 [Example 27]	< 3
O=C(Nc1ccc(OC(F)(F)F)cc1)c1cnc(N2CCCNCC2)c(-c2cccnc2)c1 [Example 145, 2-(1,4-Diazepan-1-yl)-N-(4-(trifluoromethoxy)phenyl)-[3,3′-bipyridine]-5-carboxamide]	4
Cc1ccc(-c2cc(C(=O)Nc3ccc(OC(F)(F)F)cc3)ccc2N2CC[C@@H](O)C2)cn1 [Example 6, (R)-4-(3-Hydroxypyrrolidin-1-yl)-3-(6-methylpyridin-3-yl)-N-(4-(trifluoromethoxy)phenyl)benzamide]	< 3
N#C[C@H]1CCCN(c2ncc(C(=O)Nc3ccc(OC(F)(F)F)cc3)cc2-c2cncnc2)C1 [Example 24]	< 3
CC1(O)CCN(c2ccc(C(=O)Nc3ccc(OC(F)(F)F)cc3)cc2-c2cncnc2)C1 (stereo not shown) [Example 11, 4-(3-Hydroxy-3-methylpyrrolidin-1-yl)-3-(pyrimidin-5-yl)-N-(4-(trifluoromethoxy)phenyl)benzamide]	< 3
N#Cc1ncc(-c2cc(C(=O)Nc3ccc(OC(F)(F)F)cc3)cnc2N2CC[C@H](CO)C2)cn1 [Example 80, (S)-5-(2-Cyanopyrimidin-5-yl)-6-(3-(hydroxymethyl)pyrrolidin-1-yl)-N-(4-(trifluoromethoxy)phenyl)nicotinamide]	5
CN[C@H]1CCN(c2ncc(C(=O)Nc3ccc(OC(F)(F)F)cc3)cc2-c2cccnc2)C1 [Example 103, (S)-2-(3-(Methylamino)pyrrolidin-1-yl)-N-(4-(trifluoromethoxy)phenyl)-[3,3′-bipyridine]-5-carboxamide]	< 3
CC(C)(O)C1CCN(c2ncc(C(=O)Nc3ccc(OC(F)(F)F)cc3)cc2-c2cccnc2)C1 (stereo not shown) [Example 114, 2-(3-(2-Hydroxypropan-2-yl)pyrrolidin-1-yl)-N-(4-(trifluoromethoxy)phenyl)-[3,3′-bipyridine]-5-carboxamide]	6
CN(C)CCCN(C)c1ncc(C(=O)Nc2ccc(OC(F)(F)F)cc2)cc1-c1cccnc1 [Example 168, 2-((3-(Dimethylamino)propyl)(methyl)amino)-N-(4-(trifluoromethoxy)phenyl)-[3,3′-bipyridine]-5-carboxamide]	< 3
O=C(Nc1ccc(OC(F)(F)F)cc1)c1cnc(N2CCC3(CCNC3=O)C2)c(-c2cncnc2)c1 (stereo not shown) [Example 17]	< 3
O=C(Nc1ccc(OC(F)(F)F)cc1)c1cnc(N2Cc3ccncc3C2)c(-c2cncnc2)c1 [Example 18]	< 3
O=C(Nc1ccc(OC(F)(F)F)cc1)c1cnc(N2CC[C@@H](O)C2)c(-c2ccc3nccnc3c2)c1 [Example 64, (R)-6-(3-Hydroxypyrrolidin-1-yl)-5-(quinoxalin-6-yl)-N-(4-(trifluoromethoxy)phenyl)nicotinamide]	< 3
NC[C@H]1CCN(c2ncc(C(=O)Nc3ccc(OC(F)(F)F)cc3)cc2-c2cccnc2)C1 [Example 106, (R)-2-(3-(Aminomethyl)pyrrolidin-1-yl)-N-(4-(trifluoromethoxy)phenyl)-[3,3′-bipyridine]-5-carboxamide]	< 3

Structure (SMILES)	IC50 [nM]
CC(=O)NC1CCN(c2ncc(C(=O)Nc3ccc(OC(F)(F)F)cc3)cc2-c2cncnc2)C1 (stereo not shown) [Example 15]	< 3
COc1cncc(-c2cc(C(=O)Nc3ccc(OC(F)(F)F)cc3)cnc2N2CC[C@@H](O)C2)c1 [Example 55, (R)-2-(3-hydroxypyrrolidin-1-yl)-5′-methoxy-N-(4-(trifluoromethoxy)phenyl)-[3,3′-bipyridine]-5-carboxamide]	3
CN[C@@H]1CCN(c2ncc(C(=O)Nc3ccc(OC(F)(F)F)cc3)cc2-c2cncnc2)C1 [Example 99, (R)-6-(3-(Methylamino)pyrrolidin-1-yl)-5-(pyrimidin-5-yl)-N-(4-(trifluoromethoxy)phenyl)nicotinamide]	< 3
CN(CCCO)c1ncc(C(=O)Nc2ccc(OC(F)(F)F)cc2)cc1-c1cncnc1 [Example 165, 6-((3-Hydroxypropyl)(methyl)amino)-5-(pyrimidin-5-yl)-N-(4-(trifluoromethoxy)phenyl)nicotinamide]	< 3
O=C(Nc1ccc(OC(F)(F)F)cc1)c1cnc(N2CCC(O)CC2)c(-c2cncnc2)c1 [Example 22]	< 3
CN1CC2CN(c3ncc(C(=O)Nc4ccc(OC(F)(F)F)cc4)cc3-c3cncnc3)CC2C1 (stereo not shown) [Example 16]	< 3
Cc1ncc(-c2cc(C(=O)Nc3ccc(OC(F)(F)F)cc3)ccc2N2CC[C@@H](O)C2)cn1 [Example 3, (R)-4-(3-Hydroxypyrrolidin-1-yl)-3-(2-methylpyrimidin-5-yl)-N-(4-(trifluoromethoxy)phenyl)benzamide]	< 3
Cc1ccc(-c2cc(C(=O)Nc3ccc(OC(F)(F)F)cc3)cnc2N(C)CCCO)cn1 [Example 167, 2-((3-Hydroxypropyl)(methyl)amino)-6′-methyl-N-(4-(trifluoromethoxy)phenyl)-[3,3′-bipyridine]-5-carboxamide]	30
CN(C)C1CCN(c2ncc(C(=O)Nc3ccc(OC(F)(F)F)cc3)cc2-c2cncnc2)C1 (stereo not shown) [Example 112, 6-(3-(Dimethylamino)pyrrolidin-1-yl)-5-(pyrimidin-5-yl)-N-(4-(trifluoromethoxy)phenyl)nicotinamide]	< 3
Cc1ccc(-c2cc(C(=O)Nc3ccc(OC(F)(F)F)cc3)cnc2N2CC[C@H](CN)C2)cn1 [Example 107, (R)-2-(3-(Aminomethyl)pyrrolidin-1-yl)-6′-methyl-N-(4-(trifluoromethoxy)phenyl)-[3,3′-bipyridine]-5-carboxamide]	< 3
N#Cc1ccc(-c2cc(C(=O)Nc3ccc(OC(F)(F)F)cc3)cnc2N2CC[C@H](CO)C2)cn1 [Example 91, (S)-6′-Cyano-2-(3-(hydroxymethyl)pyrrolidin-1-yl)-N-(4-(trifluoromethoxy)phenyl)-[3,3′-bipyridine]-5-carboxamide]	5
N[C@@H]1CCN(c2ncc(C(=O)Nc3ccc(OC(F)(F)F)cc3)cc2-c2cccnc2)C1 [Example 94, (R)-2-(3-Aminopyrrolidin-1-yl)-N-(4-(trifluoromethoxy)phenyl)-[3,3′-bipyridine]-5-carboxamide]	< 3
CCc1ccc(-c2cc(C(=O)Nc3ccc(OC(F)(F)F)cc3)cnc2N2CC[C@H](CO)C2)cn1 [Example 83, (S)-6′-Ethyl-2-(3-(hydroxymethyl)pyrrolidin-1-yl)-N-(4-(trifluoromethoxy)phenyl)-[3,3′-bipyridine]-5-carboxamide]	11
COc1ncc(-c2cc(C(=O)Nc3ccc(OC(F)(F)F)cc3)cnc2N2CC[C@@H](O)C2)cn1 [Example 37, (R)-6-(3-Hydroxypyrrolidin-1-yl)-5-(2-methoxypyrimidin-5-yl)-N-(4-(trifluoromethoxy)phenyl)nicotinamide]	3
CN[C@@H]1CCN(c2ncc(C(=O)Nc3ccc(OC(F)(F)F)cc3)cc2-c2ccc(C)nc2)C1 [Example 101, (R)-6′-Methyl-2-(3-(methylamino)pyrrolidin-1-yl)-N-(4-(trifluoromethoxy)phenyl)-[3,3′-bipyridine]-5-carboxamide]	< 3
Cc1ccc(-c2cc(C(=O)Nc3ccc(OC(F)(F)F)cc3)cnc2N2CC[C@@H](CN)C2)cn1 [Example 110, (S)-2-(3-(Aminomethyl)pyrrolidin-1-yl)-6′-methyl-N-(4-(trifluoromethoxy)phenyl)-[3,3′-bipyridine]-5-carboxamide]	5
CC1(O)CN(c2ncc(C(=O)Nc3ccc(OC(F)(F)F)cc3)cc2-c2cnc(Cl)c(F)c2)C1 [Example 134, 6′-Chloro-5′-fluoro-2-(3-hydroxy-3-methylazetidin-1-yl)-N-(4-(trifluoromethoxy)phenyl)-[3,3′-bipyridine]-5-carboxamide]	10
CN[C@@H]1CCN(c2ncc(C(=O)Nc3ccc(OC(F)(F)F)cc3)cc2-c2cccnc2)C1 [Example 100, (R)-2-(3-(Methylamino)pyrrolidin-1-yl)-N-(4-(trifluoromethoxy)phenyl)-[3,3′-bipyridine]-5-carboxamide]	< 3
N#C[C@@H]1CCCN(c2ncc(C(=O)Nc3ccc(OC(F)(F)F)cc3)cc2-c2cncnc2)C1 [Example 23]	< 3
CC(=O)NC1CCCN(c2ncc(C(=O)Nc3ccc(OC(F)(F)F)cc3)cc2-c2cncnc2)C1 (stereo not shown) [Example 20]	< 3
